From patent publication US7722893B2, “Use of substitute 2,4-bis (alkylamino) pyrimidines or quinzolines as antimicrobials” (Ciba Specialty Chemicals Corporation, priority 2003, dated 2010) come the findings set out here.

Assay [1] deals with Fusobacterium nucleatum subsp. polymorphum ATCC 10953. Description: MIC of a broadened organism spectrum: oral organisms. The class given is cell-based. The note with it: Fusobacterium nucleatum, ATCC10953; F. nucleatum subsp. polymorphum ATCC 10953; 7-10 days at 37° C anaerobic; read-out: minimum inhibiting concentration MIC, oral organisms. An excerpt:
(§1) Determination of the Minimum Inhibiting Concentration MIC (ppm) of a Broadened Organism Spectrum: Oral Organisms
(§2) • Medium: thioglycolate bouillon with hemin and menadione Columbia bouillon with hemin and menadione for P. gingivalis and P. nigrescens • Dilution medium: the appropriate amount of the substances was pipetted directly into the medium. • Test organisms: Actinobacillus actinomycetemcomitans ATCC 43718 • Streptococcus gordonil ATCC 10558 • Streptococcus mutans ATCC 33402 • Actinomyces viscosus ATCC 43146 • Fusobacterium nucleatum subsp. polymorphum ATCC 10953 • Porphyromonas gingivalis ATCC 33277 • Prevotella nigrescens ATCC 33563 • Incubation: 7-10 days at 37° C anaerobic, or 24 hours aerobic with 10% CO2 for Streptococci and A. actinomycetemcomitans • Test solution: Stock solutions of all the test substances in ethanol at 1500 ppm (w/w) are used. Test Principle:
(§3) Bacteria are removed from blood agar plates using cotton wool buds and a suitable optical density (McFarland 0.5) is adjusted in an appropriate medium; that solution is used undiluted for F. nucleatum and P. nigrescens, and in a dilution of 1:20 for the other strains. 0.1 ml of bacterial culture is added per 2 ml of active ingredient solution and incubation is carried out as described above.

Assay [2] deals with Actinomyces viscosus ATCC 43146. The description is as above. In kind it is cell-based. The conditions noted are these: Actinomyces viscosus, ATCC43146; A. viscosus ATCC 43146; 7-10 days at 37° C anaerobic; read-out: minimum inhibiting concentration MIC, oral organisms.
Description: as §1, §2, §3

The subject of assay [3] is Streptococcus mutans ATCC 33402. Described as above. In kind it is cell-based. The conditions noted are these: Streptococcus mutans, ATCC33402; S. mutans ATCC 33402; 24 hours aerobic with 10% CO2; read-out: minimum inhibiting concentration MIC, oral organisms.
Description: as §1, §2, §3

Assay [4] relates to Actinobacillus actinomycetemcomitans ATCC 43718. Described as above. In kind it is cell-based. The note with it: Aggregatibacter actinomycetemcomitans, ATCC43718; A. actinomycetemcomitans ATCC 43718; 24 hours aerobic with 10% CO2; read-out: minimum inhibiting concentration MIC, oral organisms.
Description: as §1, §2, §3

Assay [5] concerns Prevotella nigrescens ATCC 33563. Described as above. The conditions noted are these: Prevotella nigrescens, ATCC33563; P. nigrescens ATCC 33563; Columbia bouillon, 7-10 days at 37° C anaerobic; read-out: minimum inhibiting concentration MIC, oral organisms. In kind it is cell-based.
Description: as §1, §2, §3

The test system of a further assay is P. gingivalis ATCC 3277. The assay is described as above. The conditions noted are these: Porphyromonas gingivalis, ATCC3277, Columbia bouillon, 7-10 days at 37° C anaerobic, read-out: minimum inhibiting concentration MIC, oral organisms. In kind it is cell-based, Porphyromonas gingivalis.
Description: as §1, §2, §3

The next assay relates to S. gordonii ATCC 10558. The assay is described as above. In kind it is cell-based, Streptococcus gordonil. The conditions noted are these: Streptococcus gordonii, ATCC10558, 24 hours aerobic with 10% CO2, read-out: minimum inhibiting concentration MIC, oral organisms.
Description: as §1, §2, §3

A further assay concerns C. xerosis ATCC 373. Description: MIC of a broadened organism spectrum (agar). In kind it is cell-based. The conditions noted are these: Corynebacterium xerosis, ATCC373, 72 h, 3 days incubation, read-out: minimum inhibiting concentration MIC. The text has this: (§4) Determination of the Minimum Inhibiting Concentration MIC [ppm] of a Broadened Organism Spectrum
(§5) • Medium: Casein/soybean flour peptone agar (Merck) • *Sabouraud 4% glucose agar (Merck) • Dilution medium: sterile 0.85% NaCl solution • Test organisms: Staphylococcus aureus ATCC 6853 and 9144 • Staphylococcus epidermidis ATCC 12228 • C. xerosis ATCC 373 ** • C. minutissimum ATCC 23348 • Proplonibacterium acnes ATCC 6919 • Escherichia coli ATCC 10536 and NCTC 8196 • Proteus vulgaris ATCC 6896 • Klebsiella pneumoniae ATCC 4352 • Salmonella choleraesuis ATCC 9184 • Pseudomonas aeruginosa ATCC 15442 • *Candida albicans ATCC 10231 • *Aspergillus niger ATCC 6275 • Incubation: 24 hours at 37° C. • *3 days at 28° C. • Test solution: 1% stock solutions of all the test substances in a suitable solvent are prepared and diluted in serial dilutions (1:10, 1:100 and 1:1000 dilution), where possible diluted to such an extent that the end concentrations in agar are from 500 ppm to 10 ppm. Test principle:
(§6) 0.3 ml of the dilution stage in question is mixed with 15 ml of still-liquid nutrient medium.
(§7) When the nutrient substrate has solidified, 10 μl portions of a suitable organism dilution of the test strains in 0.85% NaCl solution are spotted onto the agar medium: […]

Assay [6] has as its system Escherichia coli ATCC 10536. Description: MIC of a broadened organism spectrum (agar). In kind it is cell-based. The conditions noted are these: ATCC10536, 24 hours at 37° C., read-out: minimum inhibiting concentration MIC.
Description: as §4, §5, §6, §7

Assay [7] concerns Escherichia coli NCTC 8196. Description: MIC of a broadened organism spectrum (agar). In kind it is cell-based. The conditions noted are these: NCTC8196, 24 hours at 37° C., read-out: minimum inhibiting concentration MIC.
Description: as §4, §5, §6, §7

Assay [8] concerns Propionibacterium acnes ATCC 6919. In words: MIC of a broadened organism spectrum (agar). The class given is cell-based. The note with it: Cutibacterium acnes, ATCC6919, 72 h, 3 days incubation under anaerobic conditions, read-out: minimum inhibiting concentration MIC.
Description: as §4, §5, §6, §7

The subject of assay [9] is Salmonella choleraesuis ATCC 9184. Description: MIC of a broadened organism spectrum (agar). The class given is cell-based. The note with it: Salmonella enterica, 24 hours at 37° C., read-out: minimum inhibiting concentration MIC.
Description: as §4, §5, §6, §7

Assay [10] concerns C. minutissimum ATCC 23348. Description: MIC of a broadened organism spectrum (agar). In kind it is cell-based. The note with it: Corynebacterium minutissimum, ATCC23348, 72 h, 3 days incubation (Table 3a), read-out: minimum inhibiting concentration MIC.
Description: as §4, §5, §6, §7

For assay [11], the system named is Staphylococcus aureus ATCC 9144. Description: MIC of a broadened organism spectrum (agar). In kind it is cell-based. The note with it: ATCC9144, 24 hours at 37° C., read-out: minimum inhibiting concentration MIC.
Description: as §4, §5, §6, §7

Assay [12] concerns Proteus vulgaris ATCC 6896. In words: MIC of a broadened organism spectrum (agar). In kind it is cell-based. The conditions noted are these: ATCC6896, 24 hours at 37° C., read-out: minimum inhibiting concentration MIC.
Description: as §4, §5, §6, §7

The test system of assay [13] is Candida albicans ATCC 10231. In words: MIC of a broadened organism spectrum (agar). In kind it is cell-based. The conditions noted are these: ATCC10231, 72 h, Sabouraud 4% glucose agar, 3 days at 28° C., read-out: minimum inhibiting concentration MIC.
Description: as §4, §5, §6, §7

The test system of assay [14] is Pseudomonas aeruginosa ATCC 15442. Description: MIC of a broadened organism spectrum (agar). The class given is cell-based. The note with it: ATCC15442, 24 hours at 37° C., read-out: minimum inhibiting concentration MIC.
Description: as §4, §5, §6, §7

Assay [15] deals with Staphylococcus aureus ATCC 6538. Description: MIC of a broadened organism spectrum (agar). The class given is cell-based. The conditions noted are these: ATCC6538, 24 hours at 37° C., read-out: minimum inhibiting concentration MIC.
Description: as §4, §5, §6, §7

The subject of assay [16] is Klebsiella pneumoniae ATCC 4352. Description: MIC of a broadened organism spectrum (agar). The class given is cell-based. The note with it: ATCC4352, 24 hours at 37° C., read-out: minimum inhibiting concentration MIC.
Description: as §4, §5, §6, §7

The subject of assay [17] is Aspergillus niger ATCC 6275. In words: MIC of a broadened organism spectrum (agar). In kind it is cell-based. The conditions noted are these: ATCC6275, 72 h, Sabouraud 4% glucose agar, 3 days at 28° C., read-out: minimum inhibiting concentration MIC.
Description: as §4, §5, §6, §7

Assay [18] relates to Staphylococcus epidermidis ATCC 12228. In words: MIC of a broadened organism spectrum (agar). In kind it is cell-based. The conditions noted are these: ATCC12228, 24 hours at 37° C., read-out: minimum inhibiting concentration MIC.
Description: as §4, §5, §6, §7

Each structure is given as a SMILES string. Some results are limits rather than exact numbers.

Consider `CCCCCCCCNc1nc(C)c(CCCCCC)c(NCCOCCOCCN)n1` [PY55], for which the MIC in [1] was 7.5 µg/mL; in [2], 3.8 µg/mL; in [3], 7.5 µg/mL; in assay [4], 15 µg/mL; in assay [5], 3.8 µg/mL; in the assay with P. gingivalis ATCC 3277, 3.8 µg/mL. The MIC with S. gordonii ATCC 10558 worked out at 3.8 µg/mL; with C. xerosis ATCC 373, 3.9 µg/mL; in assay [6] it was 7.8 µg/mL; in assay [7], 7.8 µg/mL; in [8], 3.9 µg/mL; in [9], 7.8 µg/mL. For the same compound, the MIC was 3.9 µg/mL in assay [10]; 3.9 µg/mL in assay [11]; over 500 µg/mL in assay [12]; 125 µg/mL in [13]; over 500 µg/mL in assay [14]; 7.8 µg/mL in assay [15]. The MIC turned out to be 15.6 µg/mL in assay [16], 500 µg/mL in assay [17] and 7.8 µg/mL in [18].
